The record followed here is patent US10488417B2, “Compounds for use as imaging agents” (United Arab Emirates University, priority 2014, dated 2019).

Assay [1] addresses T1, α-synuclein (Homo sapiens, UniProt P37840).
T1 construct: GST (N, cleaved yes); made in house; host or cells: E. coli BL21
Put plainly: α-synuclein oligomerization by immunoblot analysis. It counts as biochemical. Conditions: compound: α-syn molar ratios 1:1, 2:1, 4:1; 5 days. The procedure:
Samples of α-synuclein (20 ng) incubated alone or with the compounds were mixed with 1× sample buffer (250 mM Tris-HCl, pH 6.8, 30% glycerol, 0.02% bromophenol blue) and then separated in 15% 1 mm SDS-PAGE gels. The separated proteins were transferred to 0.45 μm nitrocellulose membranes (Whatman Gmbh-Germany) at 90 V for 80 min. The membranes were boiled for 5 min in PBS and then blocked for 1 hour with 5% non-fat milk prepared in PBS-Tween-20 (0.05%; PBST). The membranes were incubated overnight at 4° C. with the primary mouse monoclonal anti-α-syn (211) antibody, which recognizes human α-synuclein (121-125) (Santa Cruz Biotechnology, USA), at a dilution of 1:1000. The membranes were then washed several times with PBST, followed by incubation with an HRP-conjugated goat anti-mouse antibody (Dako Ltd., Ely, UK) at a dilution of 1:70,000 for 60 minutes at room temperature with gentle agitation. The membranes were then extensively washed for 25 min, and immunoreactive bands were visualized with the Super Signal West Femto Chemiluminescent Substrate Kit (Pierce, Rockford, USA) according to the manufacturer's instructions.
The effect of Gn Rb1, salvianolic acid B and dihydromyricetin on α-synuclein oligomerization was assessed by immunoblot analysis. Fresh and aged solutions of α-synuclein alone or in the presence of Gn Rb1, salvianolic acid B or dihydromyricetin were analyzed. Samples were separated in 15% SDS gels, transferred onto a nitrocellulose membrane and probed with an antibody that recognizes the amino acid residues 121-125 of α-synuclein. The majority of freshly prepared α-synuclein migrated as a band at ˜16 KDa, corresponding to α-synuclein monomers (FIGS. 4A-C).
The amount of monomeric α-synuclein in the α-synuclein aged alone samples and in the presence of compounds was quantified against a fresh α-synuclein sample that contained only the monomeric species using ImageJ software.
Background: In western blotting, separated proteins are transferred to a membrane and probed.

The target in assay [2] is T1, α-synuclein. Put plainly: α-synuclein fibrillation, Thioflavin-T (Th-T) binding assay. It counts as biochemical. Particulars: 25 μM α-synuclein; for inhibition at 50 µM: compound 50 μM. The procedure: The protein purity was estimated to be >95% using an SDS gel. Ginsenoside, Rb1, stock solutions (10 mM) were prepared in 100% DMSO, and the final amount of DMSO in the sample solutions was 1%. Samples of 25 μM α-synuclein in PBS were aged alone or with Rb1 at various molar ratios (Rb1:α-synuclein molar ratios of 4:1, 2:1 and 1:1). The samples were placed in 1.5 ml sterile polypropylene tubes, drops of mineral oil were added to prevent sample evaporation, and the tubes were then sealed with parafilm and incubated at 37° C. for 5 days with continuous shaking at 800 rpm in a Thermomixer (Eppendorf). Samples were collected at the indicated time points, and a Thioflavin-T assay was performed immediately at each time point, while the rest of the samples were stored at −80° C. until needed for further analyses.
α-Synuclein fibril formation was monitored by Th-T binding assay. Th-T is a fluorescent dye that interacts with fibrils containing a β-sheet structure. A total of 10 μL of each sample was diluted in 40 μL of Th-T in PBS. Fluorescence was then measured in a 384-well, untreated black micro-well plate (Nunc, Denmark) using a microplate reader (Victor X3 2030, Perkin Elmer) with the excitation and emission wavelengths set at 450 and 486 nm, respectively. To allow for background fluorescence, the fluorescence intensity of a blank PBS solution was subtracted from all readings.
α-Synuclein solution at a concentration of 25 μM was incubated at 37° C. with continuous shaking for 5 days, leading to fibril formation, which was monitored by Th-T fluorescence at regular time intervals. α-Synuclein was incubated with each of Gn Rb1, salvianolic acid B and dihydromyricetin at molar ratios of 4:1, 2:1 and 1:1 (molar ratio Compound: α-synuclein) with a constant α-synuclein concentration of 25 μM.

For assay [3], the target named is T1, α-synuclein. The experiment in a line: Transmission electron microscopy of α-synuclein aged with compounds. It counts as biochemical. Conditions: 25 μM α-synuclein, 5 days, molar ratios 4:1, 2:1, 1:1. The procedure: Electron images were produced from α-synuclein aged alone or in the presence of the compounds. The samples (5 μL) were deposited on Formvar-coated 400-mesh copper grids (Agar Scientific, UK), fixed briefly with 0.5% glutaraldehyde (5 μL), negatively stained with 2% uranyl acetate (Sigma-Aldrich, USA) and examined with a Philips CM-10 TEM electron microscope.

Another assay addresses T2, α-synuclein oligomers (Homo sapiens, UniProt P37840).
T2 construct: GST (N, cleaved yes); made in house; host or cells: E. coli BL21
Put plainly: Binding to α-synuclein oligomers: SEC fractions P1-P3 with UV scanning. Conditions: compound: α-synuclein 4:1, 100 μM α-synuclein, 5 days. The procedure: SEC was carried out using an AKTA FPLC system (GE Healthcare-Sweden) and a superdex 200 column at 4° C., in order to separate the oligomers generated from the aggregation of α-synuclein with the compounds (compound: α-synuclein molar ratio of 4:1). Monomeric α-synuclein at a concentration of 100 μM was aggregated in the presence of the compounds for 5 days as described above. At the end of the aggregation process, the sample was centrifuged for 45 min at 14,000×g at 4° C. generating a supernatant free from insoluble material. Prior to injecting 80% of the generated supernatant, the column was thoroughly equilibrated with SEC running buffer (1×PBS, pH 7.4) and the flow rate was set to 0.1 ml/min (0.5 ml/fraction). The elution of α-synuclein was monitored at absorbance wavelengths of 215 nm, 254 nm, and 280 nm. To determine the elution time of monomeric α-syn, molecular weight standards (ferritin 440 kDa, aldolase 171 kDa, abmumin 68 kDa and chymotrypsinogenA 25 kDa) and monomeric α-synuclein were co-injected into the column and eluted at the same conditions mentioned above.
For the experiments with salvianolic acid B and dihydromyricetin the fractions eluting between 7-8 ml CV were combined and labeled as oligomers (sample P1), and fractions eluting between 12-14 ml CV were combined and labeled as oligomers (sample P2), whereas the fractions eluting in the 14-16 ml CV were combined and labeled as monomers (sample P3). […]
The P1, P2 and P3 samples, representing the oligomeric and monomeric fractions of SEC, were concentrated using a speed vac (CentriVap, Labconco). […] The UV absorbance spectrum was recorded from 200-600 nm in a spectrophotometer (DU-800, Beckman-Coulter) using 10 mm quartz cuvettes (Hellma Analytics-Germany) and employing equal concentrations of the P1, P2 and P3. […]

The mark [4] stands for this setting: after 5 days of incubation, read-out: inhibition of α-synuclein fibrillation (Th-T fluorescence).

On to `CC(C)=CCC[C@](C)(O[C@@H]1O[C@H](CO[C@@H]2O[C@H](CO)[C@@H](O)[C@H](O)[C@H]2O)[C@@H](O)[C@H](O)[C@H]1O)[C@H]1CC[C@]2(C)[C@@H]1[C@H](O)C[C@@H]1[C@@]3(C)CC[C@H](O[C@@H]4O[C@H](CO)[C@@H](O)[C@H](O)[C@H]4O[C@@H]4O[C@H](CO)[C@@H](O)[C@H](O)[C@H]4O)C(C)(C)[C@@H]3CC[C@]12C` [Gn Rb1, ginsenoside Rb1], for which, at α-synuclein [1], the “effect on α-synuclein oligomerization (immunoblot, densitometry)” value (“effect on α-synuclein oligomerization” below) is “potent inhibitor of α-synuclein oligomerization at all molar ratios”. Besides, the “inhibition percentage of α-synuclein fibrillation (Th-T fluorescence)” value at α-synuclein [2] (2 days of incubation, 37° C., all tested concentrations) was “approximately 90%”. Also, at α-synuclein [2] (after 5 days of incubation, all tested concentrations), the “reduction of α-synuclein fibrillation (Th-T fluorescence)” value is “approximately 80%”. Also, the “TEM appearance of α-synuclein aged in the presence of compound” value (shortened to “TEM appearance of α-synuclein aged”) at α-synuclein [3] is “thin, short rod-like fibrils, with a fragmented appearance”. Besides, the “SEC samples in which compound was detected by UV absorbance (P1, P2 oligomers; P3 monomers)” value (“SEC samples” below) on α-synuclein oligomers is “detected only in the oligomeric P2 samples”.
What is called inhibition is the change of the read-out against control, counted positive when it falls. `O=C1c2c(O)cc(O)cc2O[C@H](c2cc(O)c(O)c(O)c2)[C@H]1O` [dihydromyricetin]: on α-synuclein [1], the “effect on α-synuclein oligomerization” value is “inhibited α-synuclein oligomerization in a dose-dependent fashion”. In addition, the “inhibition of α-synuclein fibrillation (Th-T fluorescence)” value on α-synuclein [2] (compound 25 μM, after 5 days of incubation) is recorded as “failed to inhibit fibrillation”. The inhibition at 50 µM at α-synuclein [2] (setting [4]) was found to be 40%. Further, the inhibition at 100 µM on α-synuclein [2] (compound 100 μM, after 5 days of incubation, read-out: inhibition of α-synuclein fibrillation (Th-T fluorescence)) worked out at 80%. Besides, the “TEM appearance of α-synuclein aged” value at α-synuclein [3] is “thin, short rod-like fibrils, with a fragmented appearance”. The “SEC samples” value at α-synuclein oligomers was “detected in both P2 and P3”.
On to `O=C(/C=C/c1ccc(O)c2c1[C@H](C(=O)O[C@H](Cc1ccc(O)c(O)c1)C(=O)O)[C@@H](c1ccc(O)c(O)c1)O2)O[C@H](Cc1ccc(O)c(O)c1)C(=O)O` [salvianolic acid B], for which the “effect on α-synuclein oligomerization” value on α-synuclein [1] was “inhibited α-synuclein oligomerization in a dose-dependent fashion”. Besides, the inhibition at 25 µM on α-synuclein [2] (compound 25 μM, after 5 days of incubation, read-out: inhibition of α-synuclein fibrillation (Th-T fluorescence)) was about 35%. Moreover, the inhibition at 50 µM on α-synuclein [2] (setting [4]) was about 80%. In addition, the “inhibition of α-synuclein fibrillation (Th-T fluorescence)” value on α-synuclein [2] (compound 100 μM, after 5 days of incubation) is on record as “completely abolished”. On α-synuclein [3], the “TEM appearance of α-synuclein aged” value is recorded as “thin, short rod-like fibrils, with a fragmented appearance”. The “SEC samples” value on α-synuclein oligomers is “detected in the P2 sample”.
